In PMC8765320, “Identification of a Proteasome-Targeting Arylsulfonamide with Potential for the Treatment of Chagas’ Disease” (Antimicrobial Agents and Chemotherapy, 2022):
Read-outs that look alike come from different tables or passages of the source.

Key:
T. cruzi epimastigotes = assay: T. cruzi epimastigote drug sensitivity assay (resazurin); type: cell-based, Trypanosoma cruzi; conditions: for EC50: Trypanosoma cruzi
Protocol: To examine the effects of test compounds on the growth of T. cruzi epimastigotes, mid-log-phase parasites were seeded into 96-well plates at a cell density of 5 × 10^5 cells ml^−1. Cells were exposed to test compounds over a range of concentrations (2-fold serial dilutions). Cells were incubated for 4 days, and then 20 μl of 2.5 mM resazurin was added to each well, before measuring the fluorescence (excitation, 528 nm; emission, 590 nm), following a further 24 h of incubation. […] In this equation, [I] represents the inhibitor concentration, and m is the slope factor. Experiments were repeated at least two times, and the data are presented as means plus the standard deviations.

[1] = tested on: L. donovani promastigotes; assay: L. donovani promastigote drug sensitivity assay; type: cell-based, Leishmania donovani; conditions: for EC50: Leishmania donovani
Protocol: (§1) L. donovani promastigote ([35]), axenic amastigote ([25]), and T. brucei bloodstream form ([36]) drug sensitivity assays were carried out as previously described. HepG2 monolayers were washed twice in PBS, detached with 0.05% trypsin/EDTA, and then diluted with fully supplemented MEM growth medium. Cells were pelleted at 80 × g for 5 min and resuspended in fully supplemented growth medium. Cells were seeded into 96-well plates (5 × 10^4/well) and allowed to adhere prior to exposure to test compounds. Plates were incubated at 37°C in the presence of 5% CO2 for 72 h. After incubation, resazurin (20 μl of a 2.5-mg/ml^−1 stock solution) was added to each well, followed by incubation for a further 2 h prior to fluorescence being read as described above.

T. brucei BSF = assay: T. brucei bloodstream form drug sensitivity assay; type: cell-based; conditions: Trypanosoma brucei, weighted mean, n ≥ 3, read-out: Mean compound 1 EC50 ± SD
Protocol: as §1

Structure (SMILES): COc1ccc(NS(=O)(=O)c2cc(-c3cc(C)n[nH]3)ccc2C)cc1OC [Compound 1]
- EC50 (T. cruzi epimastigotes; T. cruzi epimastigote, weighted mean, n ≥ 3, read-out: Mean compound 1 EC50 ± SD): 3 ± 0.08 µM
- EC50 (T. cruzi epimastigotes; WT promastigotes (so in the source), Fig. 2B, one biological replicate, read-out: EC50): 0.7 ± 0.01 µM
- EC50 (T. cruzi epimastigotes; cell line Wild type, read-out: Mean EC50 ± SD): 3.3 ± 0.08 µM
- EC50 (T. cruzi epimastigotes; read-out: Mean EC50 ± SD, cell line ME OE (cTcME overexpressing)): 5 ± 0.11 µM
- EC50 (T. cruzi epimastigotes; read-out: Mean EC50 ± SD, cell line RES I (compound 1-resistant, β5 D225N)): 61 ± 1 µM
- EC50 (T. cruzi epimastigotes; read-out: Mean EC50 ± SD, cell line RES II (compound 1-resistant, β5 D225N)): 54 ± 1 µM
- EC50 (T. cruzi epimastigotes; read-out: Mean EC50 ± SD, cell line RES III (compound 1-resistant, β5 D225N)): 61 ± 0.7 µM
- EC50 (T. cruzi epimastigotes; read-out: Mean EC50 ± SD, cell line RES IV (compound 1-resistant, no proteasome mutation)): 31 ± 2 µM
- EC50 (T. cruzi epimastigotes; read-out: Mean EC50 ± SD, cell line RES V (compound 1-resistant, β4 I27T)): 70 ± 2 µM
- EC50 (T. cruzi epimastigotes; read-out: Mean EC50 ± SD, cell line Res I-β5 OE (β5 WT overexpressed in RES I)): 13 ± 0.8 µM
- EC50 (T. cruzi epimastigotes; read-out: Mean EC50 ± SD, cell line β4 F24L/I29M (CRISPR-edited)): > 50 µM
- EC50 (T. cruzi epimastigotes; read-out: Mean EC50 ± SD, cell line β5 D225N-OE (overexpressing mutated β5)): 27 ± 1 µM
- EC50 (T. cruzi epimastigotes; resistant clone I, Fig. 2B, one biological replicate, read-out: EC50): 23 ± 4 µM
- EC50 (T. cruzi epimastigotes; resistant clone II, Fig. 2B, one biological replicate, read-out: EC50): 16 ± 0.3 µM
- EC50 (T. cruzi epimastigotes; resistant clone IV, Fig. 2B, one biological replicate, read-out: EC50): 11 ± 1 µM
- EC50 (T. cruzi epimastigotes; resistant clone V, Fig. 2B, one biological replicate, read-out: EC50): 14 ± 6 µM
- fold change versus the WT (T. cruzi epimastigotes; cell line ME OE): 1 fold
- fold change versus the WT (T. cruzi epimastigotes; cell line RES I): 18 fold
- fold change versus the WT (T. cruzi epimastigotes; cell line RES II): 16 fold
- fold change versus the WT (T. cruzi epimastigotes; cell line RES III): 18 fold
- fold change versus the WT (T. cruzi epimastigotes; cell line RES IV): 9 fold
- fold change versus the WT (T. cruzi epimastigotes; cell line RES V): 21 fold
- fold change versus the WT (T. cruzi epimastigotes; cell line Res I-β5 OE): 4 fold
- fold change versus the WT (T. cruzi epimastigotes; cell line β4 F24L/I29M): > 15 fold
- fold change versus the WT (T. cruzi epimastigotes; cell line β5 D225N-OE): 8 fold
- susceptibility of CRISPR-edited epimastigotes (T. cruzi epimastigotes; β4 F24L and I29M, at all of the concentrations tested): refractory
- fold change versus WT ([1]; L. donovani cell line cLdME OE): =
- fold change versus WT ([1]; L. donovani compound 2-resistant line (G197S in β5 subunit)): 260 fold
- EC99 in promastigotes ([1]; L. donovani promastigotes): 300 nM
- EC50 ([1]; read-out: Compound 1 EC50 values, L. donovani cell line Compound 2 RES III (G197S in β5 subunit)): 26 ± 4 µM
- EC50 ([1]; L. donovani cell line Wild-type, read-out: Compound 1 EC50 values): 0.1 ± 0.005 µM
- EC50 ([1]; L. donovani promastigote, weighted mean, n ≥ 3, read-out: Mean compound 1 EC50 ± SD): 0.1 ± 0.005 µM
- EC50 (T. brucei BSF): 0.3 ± 0.013 µM
